{"source": "patent US20100166714A1", "about": "“CARDIOVASCULAR STEM CELLS, METHODS FOR STEM CELL ISOLATION, AND USES THEREOF” (THE GENERAL HOSPITAL CORPORATION, priority 2006, published 2010)", "tested_on": "FACS purified isl1+ progenitors spontaneously differentiated into smooth muscle cells", "test": "Calcium imaging (fluo-4) after Angiotensin II stimulation", "format": "cell-based, mouse", "details": "Angiotensin II 10^-7 M", "experimental": "Calcium imaging. FACS purified isl1^+ progenitors from double heterozygous isl1-mER-Cre-mER/R26R were plated on fibronectin coated glass chamber slides and allowed to spontaneously differentiate in DMEM/F12 containing B27 supplement, 2% FBS, and 10 ng/ml EGF. After 5 days in culture, cells were incubated for 20 minutes with 5 μM Fluo-4 AM (Molecular Probes) in HEPES buffer. Cells were then rinsed three times in HEPES buffer, pH 7.4, containing 1.5 mM Ca^2+. Angiotensin II was applied at the final concentration of 10^−7 M. Calcium imaging was acquired every 100 msec in 100 sec installment and analyzed using Metamorph software (Universal Imaging Corporation). Each experiment included three installments to cover the period of the agonist effect.", "data": [{"substance": "Angiotensin II (DRVYIHPF; Angiotensin-2; UniProt P01019 25-32, looked up)", "values": [{"measurement": "measured cells in which exposure induced a progressive cytosolic [Ca2+]i increase", "setting": "isl1+ progenitors from isl1-mER-Cre-mER/R26R mice after 5 days in culture, Fluo-4 AM", "value": "4 of 25"}, {"measurement": "time at which the cytosolic [Ca2+]i increase reached the maximum", "setting": "responding cells, diminished thereafter", "value": "~70", "unit": "s"}]}]}
